Data reported in the NIST ThermoML archive (doi:10.1016/j.jct.2007.01.013).
Numbers after ± are expanded uncertainties.

What was measured:
[1] = refractive index (Na D-line) (dimensionless); settings: 293.15 K; 101.33 kPa; Liquid; Standard Abbe refractometry
[2] = Liquid; for mass density: 101.33 kPa; for Normal boiling temperature: Distillation

Row | Compound | refractive index [1] | mass density ([2]; 293.15 K) | Normal boiling temperature [2] | mass density ([2]; 298 K)
1 | CCCCOC(=O)c1ccccc1C(=O)OCCCC [dibutyl phthalate] | 1.49114 ± 0.0007 | 1046.54 ± 0.79 kg/m3 | 340.1 ± 0.2 °C | 
2 | COC(=O)c1ccccc1C(=O)OC [dimethyl 1,2-benzenedicarboxylate] | 1.51384 ± 0.0007 | 1190.53 ± 1.5 kg/m3 | 283.6 ± 0.2 °C | 
3 | CCOC(=O)CC [ethyl propanoate] | 1.38394 ± 0.0007 |  | 99.1 ± 0.2 °C | 884.35 ± 1 kg/m3
